These results are taken from ChEMBL document CHEMBL1201862, “PubChem BioAssay data set” (2004).

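48-hour exposure; five concentrations; linearly interpolated endpoints. At the GI50, growth is halved.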 The source made the active and inactive calls. Rule as the data show it: active = GI50 up to about 1.1 µM and inactive = higher.

Test systems include MDA-MB-435; SNB-75; SK-MEL-28; OVCAR-5; M14; UO-31; HOP-92; NCI-H226; A549; RXF 393; UACC-257; SF-539; KM12; OVCAR-3; ACHN; SN12C; SW-620; MOLT-4; PC-3; SK-OV-3.
Assay in all cases: growth of human tumour cells (NCI), 48 h

Regarding `COc1cccc2cc(C(C)=O)c(=O)oc12`, the GI50 in the test with MDA-MB-435, in the test with SNB-75, with SK-MEL-28, in the test with OVCAR-5, in the test with M14 and in the test on UO-31 was > 100 µM (inactive) throughout. Also, the GI50 with HOP-92, in the test with NCI-H226, with A549, in the test with RXF 393, in the test on UACC-257 and with SF-539 was > 100 µM (inactive) in each case. Also, the GI50 in the test on KM12, in the test with OVCAR-3, in the test with ACHN, in the test on SN12C, with SW-620 and in the test on MOLT-4 was > 100 µM (inactive) throughout. Moreover, the GI50 with PC-3 was > 100 µM (inactive).
Regarding `Cc1ccc2c(c1)S(=O)(=O)c1ccc3ccccc3c1N2`, the GI50 in the test on MDA-MB-435, in the test on SK-MEL-28, in the test with OVCAR-5, in the test with M14, in the test with UO-31 and with HOP-92 was > 100 µM (inactive) in each case. Further, the GI50 with NCI-H226, with A549, in the test with SK-OV-3, in the test with RXF 393, in the test on UACC-257 and in the test on SF-539 was > 100 µM (inactive) throughout. Moreover, the GI50 with KM12, with OVCAR-3, in the test on ACHN, with SN12C, in the test on SW-620 and in the test on MOLT-4 was > 100 µM (inactive) in each case. Further, the GI50 with PC-3 is > 100 µM (inactive).
`O=C1COc2ccc([N+](=O)[O-])cc2C(=O)C1`: the GI50 in the test with MDA-MB-435 is > 10 µM (inactive); with SK-MEL-28 it was > 10 µM (inactive); in the test on OVCAR-5, > 10 µM (inactive); in the test with M14 it was > 10 µM (inactive); with UO-31, > 10 µM (inactive); in the test on HOP-92, 0.001 µM (active). Further, the GI50 in the test with NCI-H226, in the test on A549, in the test on SK-OV-3, in the test on RXF 393, in the test on UACC-257 and with SF-539 was > 10 µM (inactive) throughout. The GI50 with KM12, in the test with OVCAR-3, in the test with ACHN, in the test with SN12C, with SW-620 and in the test on MOLT-4 was > 10 µM (inactive) each time. Besides, the GI50 in the test on PC-3 is > 10 µM (inactive).
On to `COC(=O)c1c(O)ccc2c1c1c(n2CCc2ccc(OC)c(OC)c2)C(=O)c2ccccc2C1=O`, for which the GI50 was 14 µM (inactive) in the test on MDA-MB-435; 11.6 µM (inactive) in the test on SK-MEL-28; 19.7 µM (inactive) with OVCAR-5; 14.2 µM (inactive) in the test with M14; 13.7 µM (inactive) in the test on UO-31; 14.6 µM (inactive) in the test on HOP-92. For the same compound, the GI50 is 19.6 µM (inactive) in the test with NCI-H226; 14.5 µM (inactive) in the test on A549; 19.4 µM (inactive) in the test with SK-OV-3; 16.8 µM (inactive) with RXF 393; 16.6 µM (inactive) in the test with UACC-257; 14.4 µM (inactive) with SF-539. The GI50 was 13 µM (inactive) in the test with KM12; 16.3 µM (inactive) in the test with OVCAR-3; 18.2 µM (inactive) in the test with ACHN; 21.9 µM (inactive) in the test with SN12C; 9.25 µM (inactive) in the test on MOLT-4; 14.9 µM (inactive) with PC-3.
On to `CC1C[C@]2(C)C(NCCN)=Nc3ccccc3[C@@H]2N(C)c2ccccc21` (stereo not given in full), for which the GI50 with MDA-MB-435 is 10.7 µM (inactive); in the test with SNB-75, 3.45 µM (inactive); with SK-MEL-28 it was 11.2 µM (inactive); in the test on OVCAR-5, 14 µM (inactive); in the test on M14 it was 1.9 µM (inactive); in the test on UO-31 it was 11.2 µM (inactive). Besides, the GI50 in the test on HOP-92 was 2.3 µM (inactive); with NCI-H226, 14.7 µM (inactive); in the test on A549 it was 16.4 µM (inactive); in the test with RXF 393, 8.85 µM (inactive); in the test on UACC-257 it was 5.04 µM (inactive); with SF-539, 12.4 µM (inactive). Also, the GI50 in the test on KM12 was 16 µM (inactive); in the test on OVCAR-3 it was 11.1 µM (inactive); with ACHN it was 16.3 µM (inactive); in the test with SN12C, 14.4 µM (inactive); in the test with SW-620, 17.5 µM (inactive); with MOLT-4, 27.8 µM (inactive). Moreover, the GI50 in the test on PC-3 is 12.9 µM (inactive).
Take `C=CCC1C(O[Si](C)(C)C(C)(C)C)C(CO[Si](C)(C)C(C)(C)C)OC1n1ccc(=O)[nH]c1=O` (stereo not given): the GI50 was 1.47 µM (inactive) in the test on MDA-MB-435; 1.24 µM (inactive) in the test with SNB-75; 1.58 µM (inactive) with SK-MEL-28; 1.28 µM (inactive) in the test with OVCAR-5; 1.42 µM (inactive) in the test on M14; 1.36 µM (inactive) with UO-31. Further, the GI50 in the test with HOP-92 was 1.05 µM (active); in the test on NCI-H226, 1.51 µM (inactive); with A549 it was 1.38 µM (inactive); in the test with RXF 393 it was 1.8 µM (inactive); in the test with UACC-257 it was 1.68 µM (inactive); with SF-539 it was 1.6 µM (inactive). For the same compound, the GI50 with KM12 is 1.96 µM (inactive); with OVCAR-3, 1.6 µM (inactive); in the test on ACHN it was 1.6 µM (inactive); in the test with SN12C it was 1.38 µM (inactive); in the test with SW-620, 1.16 µM (inactive); with MOLT-4, 0.597 µM (active). Besides, in the test on PC-3, the GI50 was 1.53 µM (inactive).
Turning to `CCOc1ccc(-n2c(=O)n3c(Nc4ccc(Cl)cc4)nc4c(c(=O)n(C)c(=O)n4C)n3c2=O)cc1`, the GI50 in the test on MDA-MB-435 is 20.3 µM (inactive); in the test on SNB-75 it was 13.7 µM (inactive); in the test with SK-MEL-28 it was 28.2 µM (inactive); in the test on OVCAR-5 it was 37.6 µM (inactive); with M14 it was > 10 µM (inactive); with UO-31 it was > 100 µM (inactive). Also, the GI50 is 22.5 µM (inactive) in the test with HOP-92; 22.7 µM (inactive) in the test with NCI-H226; 75.5 µM (inactive) with A549; 26.6 µM (inactive) with RXF 393; 23.5 µM (inactive) in the test with UACC-257; 41 µM (inactive) in the test on SF-539. Also, the GI50 is 16 µM (inactive) in the test with KM12; 23 µM (inactive) with OVCAR-3; 43.4 µM (inactive) in the test on ACHN; 27.2 µM (inactive) in the test on SN12C; 33.9 µM (inactive) with SW-620; 23.9 µM (inactive) in the test on MOLT-4. Besides, the GI50 in the test on PC-3 was 47.6 µM (inactive).
On to `O=c1[nH]nc(Nc2ccc(Cl)cc2)c2nnn(C3CCCCC3)c12`, for which the GI50 in the test on MDA-MB-435 was 46.3 µM (inactive); with SNB-75 it was 26.3 µM (inactive); with SK-MEL-28 it was > 100 µM (inactive); in the test on OVCAR-5, > 100 µM (inactive); with M14, 55.1 µM (inactive); in the test on UO-31, > 100 µM (inactive). Moreover, the GI50 in the test with HOP-92 is 22.4 µM (inactive); with NCI-H226, 86.7 µM (inactive); in the test on A549, > 100 µM (inactive); in the test on RXF 393, 30.4 µM (inactive); in the test with UACC-257, > 100 µM (inactive); with SF-539, > 100 µM (inactive). Further, the GI50 was 65.5 µM (inactive) in the test on KM12; 37.2 µM (inactive) in the test with OVCAR-3; > 100 µM (inactive) in the test on ACHN; > 100 µM (inactive) in the test on SN12C; 62.4 µM (inactive) with SW-620; > 100 µM (inactive) in the test on PC-3.
Turning to `CC1(C)CO[P@@](=S)(c2ccccn2)O[C@@H]1c1ccccc1`, the GI50 in the test on MDA-MB-435 is > 100 µM (inactive); with SNB-75, > 100 µM (inactive); in the test with SK-MEL-28 it was > 100 µM (inactive); in the test on OVCAR-5 it was > 100 µM (inactive); in the test with M14, > 100 µM (inactive); in the test with UO-31, 82.6 µM (inactive). The GI50 in the test on HOP-92 is > 100 µM (inactive); in the test on NCI-H226 it was 76.2 µM (inactive); in the test on A549, > 100 µM (inactive); with SK-OV-3 it was > 100 µM (inactive); in the test with RXF 393 it was > 100 µM (inactive); in the test on UACC-257 it was > 100 µM (inactive). The GI50 was > 100 µM (inactive) in the test with KM12; 18.7 µM (inactive) with OVCAR-3; > 100 µM (inactive) in the test with ACHN; > 100 µM (inactive) in the test on SN12C; > 100 µM (inactive) in the test with SW-620; 44.5 µM (inactive) in the test on MOLT-4. Moreover, the GI50 with PC-3 is > 100 µM (inactive).
Turning to `Fc1cccc(Cl)c1C1SCc2nc3cc4ccccc4cc3n21` (stereo not given), the GI50 with MDA-MB-435 is > 100 µM (inactive); with SK-MEL-28, > 100 µM (inactive); in the test on OVCAR-5, > 100 µM (inactive); in the test with M14, > 100 µM (inactive); with HOP-92, 19.6 µM (inactive); in the test with NCI-H226, 33.8 µM (inactive). Besides, the GI50 in the test on A549 is > 100 µM (inactive); in the test on SK-OV-3, 37 µM (inactive); in the test with RXF 393, > 100 µM (inactive); in the test on UACC-257, > 100 µM (inactive); with SF-539, 82.8 µM (inactive); in the test on KM12, > 100 µM (inactive). Besides, the GI50 in the test with OVCAR-3 is 66.1 µM (inactive); in the test on ACHN it was > 100 µM (inactive); with SN12C it was 61.1 µM (inactive); in the test with SW-620 it was > 100 µM (inactive); in the test with MOLT-4 it was > 100 µM (inactive); in the test with PC-3, > 100 µM (inactive).
With `OCCN1CN(c2nc(N3CN(CCO)C3)nc(N3CN(CCO)C3)n2)C1`, the GI50 in the test with MDA-MB-435 was 17.8 µM (inactive); in the test on SNB-75 it was 23.1 µM (inactive); in the test on SK-MEL-28, 17.7 µM (inactive); with OVCAR-5, 23.1 µM (inactive); with M14 it was 17.5 µM (inactive); in the test with UO-31 it was 20 µM (inactive). Besides, the GI50 in the test on HOP-92 was 19.9 µM (inactive); in the test on NCI-H226 it was 24.8 µM (inactive); in the test on A549 it was 83.4 µM (inactive); in the test with RXF 393, 22.7 µM (inactive); in the test on UACC-257, 18.9 µM (inactive); in the test on SF-539 it was 18.2 µM (inactive). For the same compound, the GI50 with KM12 was 21.4 µM (inactive); in the test with ACHN, 31.6 µM (inactive); with SN12C, 18 µM (inactive); with SW-620, 30 µM (inactive); in the test on MOLT-4, 33.7 µM (inactive); with PC-3 it was 22.1 µM (inactive).
